# Data reported in patent US4762821A, “N',N"-dialkylguanidino dipeptides” (Syntex (U.S.A.) Inc., priority 1986, dated 1988).
# Target: T1, ACE from crude rabbit lung acetone powder (Oryctolagus cuniculus, UniProt P12822)
# T1 construct: a preparation of ACE from crude rabbit lung acetone powder; from tissue; host or cells: rabbit lung (crude acetone powder)
# T1 sequence (P12822 34-1310): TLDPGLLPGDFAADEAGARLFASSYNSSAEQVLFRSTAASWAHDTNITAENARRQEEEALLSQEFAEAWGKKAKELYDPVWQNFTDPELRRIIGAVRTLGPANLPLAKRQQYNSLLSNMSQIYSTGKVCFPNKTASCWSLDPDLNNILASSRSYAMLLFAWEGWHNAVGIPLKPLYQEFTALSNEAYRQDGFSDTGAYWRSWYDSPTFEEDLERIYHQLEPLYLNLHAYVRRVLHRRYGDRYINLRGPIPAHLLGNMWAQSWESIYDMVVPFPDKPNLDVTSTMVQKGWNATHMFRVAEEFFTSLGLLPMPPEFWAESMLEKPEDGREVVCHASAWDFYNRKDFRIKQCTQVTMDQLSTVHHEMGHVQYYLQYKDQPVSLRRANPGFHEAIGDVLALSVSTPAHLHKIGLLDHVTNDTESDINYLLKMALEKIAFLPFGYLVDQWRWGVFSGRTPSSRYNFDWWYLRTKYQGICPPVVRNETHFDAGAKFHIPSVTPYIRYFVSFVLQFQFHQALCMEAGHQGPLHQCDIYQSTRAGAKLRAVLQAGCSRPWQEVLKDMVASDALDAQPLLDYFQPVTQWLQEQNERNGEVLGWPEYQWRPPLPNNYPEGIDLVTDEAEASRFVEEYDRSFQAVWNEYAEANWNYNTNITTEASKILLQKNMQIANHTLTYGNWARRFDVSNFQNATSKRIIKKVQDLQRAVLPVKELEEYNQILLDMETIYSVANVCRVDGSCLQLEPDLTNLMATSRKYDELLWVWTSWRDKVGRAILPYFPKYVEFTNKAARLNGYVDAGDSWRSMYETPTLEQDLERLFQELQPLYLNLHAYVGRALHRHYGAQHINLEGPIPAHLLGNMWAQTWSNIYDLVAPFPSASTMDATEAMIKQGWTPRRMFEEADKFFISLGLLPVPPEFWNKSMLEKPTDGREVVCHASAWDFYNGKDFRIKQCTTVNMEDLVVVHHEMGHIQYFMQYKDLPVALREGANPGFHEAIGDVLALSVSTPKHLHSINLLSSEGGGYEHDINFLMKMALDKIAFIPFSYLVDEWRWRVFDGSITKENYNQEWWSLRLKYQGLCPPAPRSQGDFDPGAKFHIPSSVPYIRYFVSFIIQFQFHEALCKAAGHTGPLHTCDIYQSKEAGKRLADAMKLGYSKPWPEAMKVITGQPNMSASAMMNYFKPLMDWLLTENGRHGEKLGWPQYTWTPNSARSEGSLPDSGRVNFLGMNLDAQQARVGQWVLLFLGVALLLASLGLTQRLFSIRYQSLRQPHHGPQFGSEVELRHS
# Assay: in vitro ACE inhibition, hydrolysis of hippuryl-histidyl-leucine (HHL)
# Type: biochemical
# Settings: substrate HHL; test compound studied at concentrations between 10^-9 to 10^-4 M
# Procedure: A number of in vitro and in vivo models are available to assess the biological activity of ACE inhibitors. (cf E. W. Petrillo, Jr. and M. A. Ondetti, Medical Res. Rev. 2, 1 (1982) and references therein). A particularly useful in vitro test employs a preparation of ACE from rabbit lung (either crude or purified) and uses the synthetic substrate (hippuryl-histidyl-leucine) as substrate (D. W. Cushman and H. S. Cheung, Biochem. Pharmacol., 20, 1637 (1971)). The substances to be tested are assessed for their ability to block the cleavage of the substrate and doses which cause 50% inhibition of the hydrolysis of the substrate are determined (ID50). In this and other studies, the incorporation of a literature standard (usually captopril) is helpful.
# The ACE inhibiting ability of the dipeptides of formula A is assessed in the in vitro model employing a preparation of ACE from crude rabbit lung acetone powder. Hippuryl-histidyl-leucine (HHL) is used as synthetic substrate to be cleaved (hydrolysed) by ACE (D. W. Cushman and H. S. Cheung, Biochem. Pharmacol., 20, 1637 (1971)). The following compounds of formula A, identified by Arabic numerals (referred to above), were assessed for their ability to block the hydrolysis of HHL to the C-terminal dipeptide His-Leu by the ACE preparation.
row,SMILES,ID50 (dose which causes a 50% inhibition of the hydrolysis of HHL) [µM]
1,"CCN=C(NCC)NCCCC[C@H](N[C@@H](C)C(=O)N1Cc2ccccc2C[C@H]1C(=O)O)C(=O)O [(1), (S)-N-[(S)-2-[N^G,N^G' -diethyl-(S)-homoargin-Nα-yl]propionyl]-THIQ]",0.06
2,"C[C@H](N[C@@H](CCCCNC(=NCC(F)(F)F)NCC(F)(F)F)C(=O)O)C(=O)N1Cc2ccccc2C[C@H]1C(=O)O [(2), (S)-N-[(S)-2-[N^G,N^G' -bis(2,2,2-trifluoroethyl)-(S)-homoargin-Nα-yl]propionyl]-THIQ]",0.09
3,"CCCCNC(=NC)NCCCC[C@H](N[C@@H](C)C(=O)N1Cc2ccccc2C[C@H]1C(=O)O)C(=O)O [(3), (S)-N-[(S)-2-[N^G -methyl-N^G' -n-butyl-(S)-homoargin-Nα-yl]propionyl]-THIQ]",0.22
4,"CCN=C(NCC)NCCCC[C@H](N[C@@H](CC)C(=O)N1Cc2ccccc2C[C@H]1C(=O)O)C(=O)O [(4), (S)-N-[(S)-2-[N^G,N^G' -diethyl-(S)-homoargin-Nα-yl]butanoyl]-THIQ]",0.065
5,"CCN=C(NCC)NCCCC[C@H](N[C@@H](C)C(=O)N1c2ccccc2C[C@H]1C(=O)O)C(=O)O [(10), (S)-N-[(S)-2-[N^G,N^G' -diethyl-(S)-homoargin-Nα-yl]propanoyl]-2-carboxy-2,3-dihydroindole]",0.18
6,"CCCCNC(=NC)NCCCCC(NC(C)C(=O)N1CCC[C@H]1C(=O)O)C(=O)O (stereo partly drawn) [(11), N-[2-(N^G -methyl-N^G' -n-butyl-L-homoargin-N^α -yl)propionyl]-L-proline]",0.28
7,"CCN=C(NCC)NCCCCC(NC(CC)C(=O)N1CCC[C@H]1C(=O)O)C(=O)O (stereo partly drawn) [(12), N-[2-(N^G,N^G' -diethyl-L-homoargin-N^α -yl)butanoyl]-L-proline]",0.23
8,"CCCC(NC(CCCCNC(=NCC)NCC)C(=O)O)C(=O)N1CCC[C@H]1C(=O)O (stereo partly drawn) [(13), N-[2-(N^G,N^G' -diethyl-L-homoargin-N^α -yl)pentanoyl]-L-proline]",0.06
